Active and inactive are the calls of the source. No cut-off for these calls is given here.
Legend:
Saccharomyces cerevisiae = test: Anti-prion activity against [URE3] protein in Saccharomyces cerevisiae SB34 at 100 uM measured after 96 hrs by fluorimetry analysis
[1] = Anti-prion activity against [PSI+] protein in Saccharomyces cerevisiae STRg6 measured after 96 hrs by fluorimetry analysis
[2] = target: Alpha-synuclein (Homo sapiens) (UniProt P37840); test: Inhibition of human alpha-synuclein aggregation expressed in Escherichia coli BL21 (DE3) cells at 400 uM at 5:1 molar ratio after 72 hrs by ThT fluorescence assay relative to control; parameters: scale not given: the % may be the effect or the level left
[3] = target: Alpha-synuclein (Homo sapiens) (UniProt P37840); test: Binding affinity to human alpha-synuclein aggregation expressed in Escherichia coli BL21 (DE3) cells at 50 uM at 1:1 molar ratio after 3 hrs by (+) HRESIMS analysis

Row | SMILES | Activity (Saccharomyces cerevisiae) | EC50 [1] | Activity [2] | Activity [3]
1 | N=C(N)N/N=C/c1c(Cl)cccc1Cl [GUANABENZ] | Active | 26 µM | – | –
2 | C[C@@H](C/C=C/[C@@H](C)[C@H]1CC[C@@H]2[C@]1(C)CC[C@@H]1[C@@]3(C)CC[C@@H](O)C[C@@H]3C[C@@H](O)[C@]12O)COS(=O)(=O)O (relative stereo) | – | 13.8 µM | – | –
3 | CC(/C=C/[C@@H](C)[C@H]1CC[C@@H]2[C@]1(C)CC[C@@H]1[C@@]3(C)CC[C@@H](O)C[C@@H]3C[C@@H](O)[C@]12O)C(C)COS(=O)(=O)O (some centres undefined) | – | 9.8 µM | – | –
4 | O=C(O[C@@H]1Cc2c(O)cc(O)cc2O[C@@H]1c1cc(O)c(O)c(O)c1)c1cc(O)c(O)c(O)c1 | – | – | 96.3% | –
5 | CC(CCC[C@@H](C)[C@H]1CC[C@@H]2[C@]1(C)CC[C@@H]1[C@@]3(C)CC[C@@H](O)C[C@@H]3C[C@@H](O)[C@]12O)COS(=O)(=O)O (some centres undefined) | Active | 12.7 µM | 68% | Active
